What was measured:
[1] = tested on: OCI-Ly7; test: Combination study, ATPLite 72 h, dose matrix (Synergy Score, CI50)
[2] = tested on: KARPAS-422; test: as above
Experimental: Cells are thawed from a liquid nitrogen preserved state. Once cells have been expanded and divide at their expected doubling times, screening begins. Cells are seeded in growth media in either black 1536-well or 384-well tissue culture treated plates. Cells are then equilibrated in assay plates via centrifugation and placed in incubators attached to the Dosing Modules at 37° C. for 24 hours before treatment. […] These Tzero (To) plates are read using ultra-sensitive luminescence on Envision plate readers (Perkin Elmer). Treated assay plates are incubated with compound for 72 hours. After 72 hours, plates are developed for endpoint analysis using ATPLite. All data points are collected via automated processes, quality controlled and analyzed using Zalicus software.
where T is treated cell count and V is untreated (vehicle) cell count (at 72 hours). I ranges from 0% (when T=V) to 100% (when T=0). […] The measure of effect in the experiment can be the inhibition of cellular response relative to the untreated level (vehicle alone). […] The inhibition ranges from 0% at the untreated level to 100% when T=0. Inhibition levels are negative for agents that actually increase levels. Other effect measures, such as an activity ratio r=T/V may be more appropriate for some assays. When activity ratios (e.g, fold increase over stimulated control) are being used, the effect can be measured using an induction 1=ln(T/V). With this definition, all effect expressions are the same as for inhibition.
Growth Inhibition (GI) is used as a measure of cell viability. […] A GI reading of 100% represents complete growth inhibition—T72 compound-treated and T0 vehicle signals are matched. […] A GI reading of 200% represents complete death of all cells in the culture well. Compounds reaching an activity plateau of GI 200% are considered cytotoxic. GI is calculated by applying the following test and equation:
Combination analysis data were collected in a 6×6 dose matrix. Synergy is calculated by comparing a combination's response to those of its single compound, against the drug-with-itself dose-additive reference model. Deviations from dose additivity may be assessed visually on an isobologram or numerically with a Combination Index (CI). […] Additive effect is CI=1.0. […] Antagonistic effect is CI>1.0.
To measure combination effects in excess of Loewe additivity, a scalar measure to characterize the strength of synergistic interaction termed the Synergy Score is devised. The Synergy Score is calculated as:
The fractional inhibition for each component agent and combination point in the matrix is calculated relative to the median of all vehicle-treated control wells. The Synergy Score equation integrates the experimentally-observed activity volume at each point in the matrix in excess of a model surface numerically derived from the activity of the component agents using the Loewe model for additivity. Additional terms in the Synergy Score equation (above) are used to normalize for various dilution factors used for individual agents and to allow for comparison of synergy scores across an entire experiment. The inclusion of positive inhibition gating or an Idata multiplier removes noise near the zero effect level, and biases results for synergistic interactions at that occur at high activity levels.
Loewe Volume (Loewe Vol) is used to assess the overall magnitude of the combination interaction in excess of the Loewe additivity model. Loewe Volume is particularly useful when distinguishing synergistic increases in a phenotypic activity (positive Loewe Volume) versus synergistic antagonisms (negative Loewe Volume). […] This model defines additivity as a non-synergistic combination interaction where the combination dose matrix surface should be indistinguishable from either drug crossed with itself.

[3] = tested on: SUDHL6; test: Compound 1 with dexamethasone, CellTiter-Glo viability 72 h, combination index; type: cell-based; details: SUDHL6
Experimental: The effects of Compound 1 with dexamethasone were examined in a panel of cell lines. Cells were cultured and assayed as follows. Compound 1 was serially diluted with cell culture medium and various DMSO concentrations. The top concentration of Compound 1 exposed to cells was 3 uM for cell lines other than WSU-NHL and DOHH2. For WSU-NHL and DOHH2 cell lines, the top concentration of Compound 1 exposed to the cells was 0.3 uM. Dexamethasone was serially diluted in culture media and phosphate buffered saline (PBS). The top concentration of dexamethasone used on cells was 3 uM. Cells were at least 73% viable and were counted and diluted for plating at a density of about 92,000 cell/mL, 130 uL cells per well in 96 well plates for SUDHL6, Karpas 422, SUDHL4, WSU-NHL, RL, and DOHH2 cell lines. The SUDHL10 cell line was plated at a density of about 46,000 cells/mL, 130 uL cells per well in 96 well plates.
Various concentrations of Compound 1 and various combinations of dexamethasone were added to various wells of cells. Single agents (Compound 1 or dexamethasone alone) were also added to some wells of cells. Cells were incubated with compounds for 72 hours. To assay for effects of the compounds on cell viability, a CellTiter-Glo® luminescent cell viability assay (commercially available) was used. To each plate of cells, 100 uL CellTiter-Glo reagent was added, incubated, and luminescence quantified using a […].
The result for cell line SUDHL6 is depicted in FIG. 12 and in Table 12. […] Table 12 depicts combination index (CI) values for different combinations of dexamethasone/Compound 1 concentrations.

[4] = tested on: WSU-NHL; test: Combination study, ATPLite 72 h, dose matrix (Synergy Score, CI50)

C[C@H](Nc1ncnc2[nH]cnc12)c1cc2cccc(Cl)c2c(=O)n1-c1ccccc1 [Compound 1, (S)-3-(1-((9H-purin-6-yl)amino)ethyl)-8-chloro-2-phenylisoquinolin-1(2H)-one]
Synergy Score growth inhibition ([1]; combination with LEE011): A2 (A2=1 to <3)
Synergy Score inhibition ([1]; combination with LEE011): A1 (A1=0.0001 to <1)
CI50 growth inhibition ([1]; combination with PCI-32765): W (W=≥1)
Synergy Score growth inhibition ([1]; combination with PCI-32765): A2 (A2=1 to <3)
Synergy Score inhibition ([1]; combination with PCI-32765): A1 (A1=0.0001 to <1)
CI50 growth inhibition ([1]; combination with PD-0332991): T (T=0.5 to <0.7)
CI50 inhibition ([1]; combination with PD-0332991): S (S=0.01 to <0.5)
Synergy Score growth inhibition ([1]; combination with PD-0332991): A2 (A2=1 to <3)
Synergy Score inhibition ([1]; combination with PD-0332991): A2 (A2=1 to <3)
CI50 growth inhibition ([2]; combination with Dexamethasone): U (U=0.7 to <1)
CI50 inhibition ([2]; combination with Dexamethasone): T (T=0.5 to <0.7)
Synergy Score growth inhibition ([2]; combination with Dexamethasone): A3 (A3=>3)
Synergy Score inhibition ([2]; combination with Dexamethasone): A2 (A2=1 to <3)
CI50 growth inhibition ([2]; combination with LEE011): S (S=0.01 to <0.5)
CI50 inhibition ([2]; combination with LEE011): S (S=0.01 to <0.5)
Synergy Score growth inhibition ([2]; combination with LEE011): A2 (A2=1 to <3)
Synergy Score inhibition ([2]; combination with LEE011): A2 (A2=1 to <3)
CI50 growth inhibition ([2]; combination with PCI-32765): S (S=0.01 to <0.5)
CI50 inhibition ([2]; combination with PCI-32765): S (S=0.01 to <0.5)
Synergy Score growth inhibition ([2]; combination with PCI-32765): A3 (A3=>3)
Synergy Score inhibition ([2]; combination with PCI-32765): A2 (A2=1 to <3)
CI50 growth inhibition ([2]; combination with PD-0332991): S (S=0.01 to <0.5)
CI50 inhibition ([2]; combination with PD-0332991): S (S=0.01 to <0.5)
Synergy Score growth inhibition ([2]; combination with PD-0332991): A2 (A2=1 to <3)
Synergy Score inhibition ([2]; combination with PD-0332991): A2 (A2=1 to <3)
combination index (CI) ([3]; Compound 1 1.4 nM + Dexamethasone 1.4 nM): E (E = >1)
combination index (CI) ([3]; Compound 1 1.4 nM + Dexamethasone 4.1 nM): E (E = >1)
combination index (CI) ([3]; Compound 1 1.4 nM + Dexamethasone 12.3 nM): E (E = >1)
combination index (CI) ([3]; Compound 1 1.4 nM + Dexamethasone 37 nM): E (E = >1)
combination index (CI) ([3]; Compound 1 1.4 nM + Dexamethasone 111.1 nM): A (A = 0.0001 to <0.3)
combination index (CI) ([3]; Compound 1 1.4 nM + Dexamethasone 333.3 nM): A (A = 0.0001 to <0.3)
combination index (CI) ([3]; Compound 1 1.4 nM + Dexamethasone 1000 nM): A (A = 0.0001 to <0.3)
combination index (CI) ([3]; Compound 1 1.4 nM + Dexamethasone 3000 nM): A (A = 0.0001 to <0.3)
combination index (CI) ([3]; Compound 1 4.1 nM + Dexamethasone 1.4 nM): E (E = >1)
combination index (CI) ([3]; Compound 1 4.1 nM + Dexamethasone 4.1 nM): B (B = 0.3 to <0.5)
combination index (CI) ([3]; Compound 1 4.1 nM + Dexamethasone 12.3 nM): E (E = >1)
combination index (CI) ([3]; Compound 1 4.1 nM + Dexamethasone 37 nM): C (C = 0.5 to <0.7)
combination index (CI) ([3]; Compound 1 4.1 nM + Dexamethasone 111.1 nM): A (A = 0.0001 to <0.3)
combination index (CI) ([3]; Compound 1 4.1 nM + Dexamethasone 333.3 nM): A (A = 0.0001 to <0.3)
combination index (CI) ([3]; Compound 1 4.1 nM + Dexamethasone 1000 nM): A (A = 0.0001 to <0.3)
combination index (CI) ([3]; Compound 1 4.1 nM + Dexamethasone 3000 nM): A (A = 0.0001 to <0.3)
combination index (CI) ([3]; Compound 1 12.3 nM + Dexamethasone 1.4 nM): E (E = >1)
combination index (CI) ([3]; Compound 1 12.3 nM + Dexamethasone 4.1 nM): E (E = >1)
combination index (CI) ([3]; Compound 1 12.3 nM + Dexamethasone 12.3 nM): E (E = >1)
combination index (CI) ([3]; Compound 1 12.3 nM + Dexamethasone 37 nM): E (E = >1)
combination index (CI) ([3]; Compound 1 12.3 nM + Dexamethasone 111.1 nM): A (A = 0.0001 to <0.3)
combination index (CI) ([3]; Compound 1 12.3 nM + Dexamethasone 333.3 nM): A (A = 0.0001 to <0.3)
combination index (CI) ([3]; Compound 1 12.3 nM + Dexamethasone 1000 nM): A (A = 0.0001 to <0.3)
combination index (CI) ([3]; Compound 1 12.3 nM + Dexamethasone 3000 nM): A (A = 0.0001 to <0.3)
combination index (CI) ([3]; Compound 1 37 nM + Dexamethasone 1.4 nM): E (E = >1)
combination index (CI) ([3]; Compound 1 37 nM + Dexamethasone 4.1 nM): E (E = >1)
combination index (CI) ([3]; Compound 1 37 nM + Dexamethasone 12.3 nM): E (E = >1)
combination index (CI) ([3]; Compound 1 37 nM + Dexamethasone 37 nM): E (E = >1)
combination index (CI) ([3]; Compound 1 37 nM + Dexamethasone 111.1 nM): A (A = 0.0001 to <0.3)
combination index (CI) ([3]; Compound 1 37 nM + Dexamethasone 333.3 nM): A (A = 0.0001 to <0.3)
combination index (CI) ([3]; Compound 1 37 nM + Dexamethasone 1000 nM): A (A = 0.0001 to <0.3)
combination index (CI) ([3]; Compound 1 37 nM + Dexamethasone 3000 nM): A (A = 0.0001 to <0.3)
combination index (CI) ([3]; Compound 1 111.1 nM + Dexamethasone 1.4 nM): E (E = >1)
combination index (CI) ([3]; Compound 1 111.1 nM + Dexamethasone 4.1 nM): E (E = >1)
combination index (CI) ([3]; Compound 1 111.1 nM + Dexamethasone 12.3 nM): E (E = >1)
combination index (CI) ([3]; Compound 1 111.1 nM + Dexamethasone 37 nM): E (E = >1)
combination index (CI) ([3]; Compound 1 111.1 nM + Dexamethasone 111.1 nM): A (A = 0.0001 to <0.3)
combination index (CI) ([3]; Compound 1 111.1 nM + Dexamethasone 333.3 nM): A (A = 0.0001 to <0.3)
combination index (CI) ([3]; Compound 1 111.1 nM + Dexamethasone 1000 nM): A (A = 0.0001 to <0.3)
combination index (CI) ([3]; Compound 1 111.1 nM + Dexamethasone 3000 nM): A (A = 0.0001 to <0.3)
combination index (CI) ([3]; Compound 1 333.3 nM + Dexamethasone 1.4 nM): E (E = >1)
combination index (CI) ([3]; Compound 1 333.3 nM + Dexamethasone 4.1 nM): E (E = >1)
combination index (CI) ([3]; Compound 1 333.3 nM + Dexamethasone 12.3 nM): E (E = >1)
combination index (CI) ([3]; Compound 1 333.3 nM + Dexamethasone 37 nM): E (E = >1)
combination index (CI) ([3]; Compound 1 333.3 nM + Dexamethasone 111.1 nM): A (A = 0.0001 to <0.3)
combination index (CI) ([3]; Compound 1 333.3 nM + Dexamethasone 333.3 nM): A (A = 0.0001 to <0.3)
combination index (CI) ([3]; Compound 1 333.3 nM + Dexamethasone 1000 nM): A (A = 0.0001 to <0.3)
combination index (CI) ([3]; Compound 1 333.3 nM + Dexamethasone 3000 nM): A (A = 0.0001 to <0.3)
combination index (CI) ([3]; Compound 1 1000 nM + Dexamethasone 1.4 nM): E (E = >1)
combination index (CI) ([3]; Compound 1 1000 nM + Dexamethasone 4.1 nM): B (B = 0.3 to <0.5)
combination index (CI) ([3]; Compound 1 1000 nM + Dexamethasone 12.3 nM): E (E = >1)
combination index (CI) ([3]; Compound 1 1000 nM + Dexamethasone 37 nM): E (E = >1)
combination index (CI) ([3]; Compound 1 1000 nM + Dexamethasone 111.1 nM): A (A = 0.0001 to <0.3)
combination index (CI) ([3]; Compound 1 1000 nM + Dexamethasone 333.3 nM): A (A = 0.0001 to <0.3)
combination index (CI) ([3]; Compound 1 1000 nM + Dexamethasone 1000 nM): A (A = 0.0001 to <0.3)
combination index (CI) ([3]; Compound 1 1000 nM + Dexamethasone 3000 nM): A (A = 0.0001 to <0.3)
combination index (CI) ([3]; Compound 1 3000 nM + Dexamethasone 1.4 nM): A (A = 0.0001 to <0.3)
combination index (CI) ([3]; Compound 1 3000 nM + Dexamethasone 4.1 nM): A (A = 0.0001 to <0.3)
combination index (CI) ([3]; Compound 1 3000 nM + Dexamethasone 12.3 nM): A (A = 0.0001 to <0.3)
combination index (CI) ([3]; Compound 1 3000 nM + Dexamethasone 37 nM): A (A = 0.0001 to <0.3)
combination index (CI) ([3]; Compound 1 3000 nM + Dexamethasone 111.1 nM): A (A = 0.0001 to <0.3)
combination index (CI) ([3]; Compound 1 3000 nM + Dexamethasone 333.3 nM): A (A = 0.0001 to <0.3)
combination index (CI) ([3]; Compound 1 3000 nM + Dexamethasone 1000 nM): A (A = 0.0001 to <0.3)
combination index (CI) ([3]; Compound 1 3000 nM + Dexamethasone 3000 nM): A (A = 0.0001 to <0.3)
CI50 growth inhibition ([4]; combination with Dexamethasone): S (S=0.01 to <0.5)
CI50 inhibition ([4]; combination with Dexamethasone): S (S=0.01 to <0.5)
Synergy Score growth inhibition ([4]; combination with Dexamethasone): A3 (A3=>3)
Synergy Score inhibition ([4]; combination with Dexamethasone): A3 (A3=>3)
CI50 growth inhibition ([4]; combination with LEE011): S (S=0.01 to <0.5)
CI50 inhibition ([4]; combination with LEE011): S (S=0.01 to <0.5)
Synergy Score growth inhibition ([4]; combination with LEE011): A2 (A2=1 to <3)
Synergy Score inhibition ([4]; combination with LEE011): A2 (A2=1 to <3)
CI50 growth inhibition ([4]; combination with PCI-32765): S (S=0.01 to <0.5)
CI50 inhibition ([4]; combination with PCI-32765): S (S=0.01 to <0.5)
Synergy Score growth inhibition ([4]; combination with PCI-32765): A3 (A3=>3)
Synergy Score inhibition ([4]; combination with PCI-32765): A3 (A3=>3)
CI50 growth inhibition ([4]; combination with PD-0332991): S (S=0.01 to <0.5)
CI50 inhibition ([4]; combination with PD-0332991): S (S=0.01 to <0.5)
